# Where “and” joins values, the source holds several entries; their conditions need not be identical. Equal entries are not always repeated.
# Columns and labels:
# [1] = in the reflected direction; known values; cited from earlier work
# [2] = Dry storage stability at ambient conditions (FT-IR); assay type: physicochemical; conditions: stored dry at ambient conditions; FT-IR fresh vs 3 months old
# Description: FIG. 5 presents FT-IR spectra, showing fresh guanine monohydrate (top) vs 3 months old guanine monohydrate. Only small differences in the peak intensities are visible after 3 months. The typical signatures of structured water are still present (ν1, and ν3 stretching modes (broad peaks at 3420 and 3200 cm^−1) and ν2 bending mode (1596 cm^−1)).
"stability, solid to solid transformation [2]",SMILES,refractive index n [1]
–,"Nc1nc2nc[nH]c2c(=O)[nH]1 [Anhydrous guanine, guanine]",1.83 and 1.81
stable for at least several months,Nc1nc2nc[nH]c2c(=O)[nH]1.O [guanine monohydrate],–

# Source: US12473287B2, “Synthetic co-crystals of anhydrous guanine and process for preparing the same” (EcoCrystal Ltd., priority 2016, dated 2025)
